Measurements published in patent US20260200890A1, “ADAR1 INHIBITORS AND METHODS OF USING THE SAME” (AVAMMUNE THERAPEUTICS INC., priority 2022, published 2026).

What was measured:
Zα domain of ADAR1 p150 = target: T1, Zα domain of ADAR1 p150 (Homo sapiens, UniProt P55265); assay: SPR binding assay; conditions: 6× his tag Zα domain immobilized on CM5 chip, analyte 0-25 μM
T1 construct: 10 μg/ml of Zα domain of ADAR1 was immobilized on CM5 chip using anti-HIS antibody; made in house
T1 sequence (P55265 133-199 limits assumed): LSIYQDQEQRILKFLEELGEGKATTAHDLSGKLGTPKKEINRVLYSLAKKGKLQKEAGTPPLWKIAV
Method: 6× his tag Za domain of ADAR1 p150 was purified using bacterial purification system. Protein was isolated from supernatant of cell lysate using Ni-NTA resin. For binding assay using SPR, 10 μg/ml of Zα domain of ADAR1 was immobilized on CM5 chip using anti-HIS antibody. Binding was quantified using the following condition below: • Analyte: 25, 12.5, 6.25, 3.125, 1.56, 0.78, 0 μM • Contact time—60 seconds, • Dissociation time—320 seconds • Flow rate—30 μL/minute Running buffer-PBSP+5% DMSO • After curve fitting, Kd values for synthesized compounds was quantified using the instrument software.

ADAR1 = target: T2, ADAR1 (Homo sapiens, UniProt P55265); assay: ADAR1 Inhibition Assay (IFN fold-induction, Quanti-Luc luminescence, p110 KO A549 dual cells); type: cell-based; conditions: IFN fold-induction vs DMSO, 24 and 48 h
T2 construct: endogenous in cells; host or cells: p110 KO A549 dual cells
T2 sequence (P55265 1-1226): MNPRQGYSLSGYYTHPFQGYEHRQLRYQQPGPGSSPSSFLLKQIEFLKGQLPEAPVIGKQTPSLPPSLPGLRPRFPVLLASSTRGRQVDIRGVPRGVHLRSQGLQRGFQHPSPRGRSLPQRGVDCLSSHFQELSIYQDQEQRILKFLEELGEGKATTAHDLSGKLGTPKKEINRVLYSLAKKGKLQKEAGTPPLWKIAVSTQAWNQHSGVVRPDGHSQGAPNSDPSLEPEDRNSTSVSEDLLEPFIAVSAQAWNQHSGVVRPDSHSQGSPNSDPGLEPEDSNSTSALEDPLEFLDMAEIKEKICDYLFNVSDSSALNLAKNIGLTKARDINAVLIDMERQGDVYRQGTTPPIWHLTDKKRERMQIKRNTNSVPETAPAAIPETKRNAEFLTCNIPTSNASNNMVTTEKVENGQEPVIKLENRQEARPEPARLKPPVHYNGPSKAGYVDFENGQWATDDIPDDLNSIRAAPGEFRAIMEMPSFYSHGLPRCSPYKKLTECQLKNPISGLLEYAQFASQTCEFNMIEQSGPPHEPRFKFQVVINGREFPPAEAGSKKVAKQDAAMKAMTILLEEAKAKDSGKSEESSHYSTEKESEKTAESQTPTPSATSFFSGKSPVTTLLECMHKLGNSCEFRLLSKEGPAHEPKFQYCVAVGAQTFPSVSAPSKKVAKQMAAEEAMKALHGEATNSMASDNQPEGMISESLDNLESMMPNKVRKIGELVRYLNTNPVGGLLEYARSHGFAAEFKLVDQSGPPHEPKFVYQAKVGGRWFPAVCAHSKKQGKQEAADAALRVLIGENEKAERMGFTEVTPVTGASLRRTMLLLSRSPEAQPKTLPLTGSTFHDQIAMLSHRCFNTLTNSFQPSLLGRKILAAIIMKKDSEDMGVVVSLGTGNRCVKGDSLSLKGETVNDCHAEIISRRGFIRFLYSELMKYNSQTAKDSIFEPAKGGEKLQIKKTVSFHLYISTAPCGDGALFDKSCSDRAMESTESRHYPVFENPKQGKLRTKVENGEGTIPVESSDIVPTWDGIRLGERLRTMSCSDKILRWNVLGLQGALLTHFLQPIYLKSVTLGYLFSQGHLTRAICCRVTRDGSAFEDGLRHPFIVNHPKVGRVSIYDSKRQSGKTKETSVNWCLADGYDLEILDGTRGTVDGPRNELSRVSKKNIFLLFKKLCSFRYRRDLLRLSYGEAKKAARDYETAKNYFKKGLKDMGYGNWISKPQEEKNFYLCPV
Procedure, shortened: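 p110 KO A549 dual cells (20,000/well) in supplemented DMEM, treated next day with compound at 1% final DMSO for 24 and 48 h at 37 °C, 5% CO2. Supernatant luminescence read with Quanti-Luc; IFN fold-induction = sample RLU/mean DMSO RLU, used for EC50.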

Kd (Zα domain of ADAR1 p150) [nM] | EC50 (ADAR1) [µM] | SMILES
1000 to 10000 | ≤ 25 | CCOC(=O)c1cc(-c2ccccc2)sc1NC(=O)C1CCCN1C(=O)c1cccc(S(N)(=O)=O)c1 (centres unmarked) [Compound 72]
≤ 1000 | > 100 | CCOC(=O)c1cc(-c2ccccc2)sc1NC(=O)COC(=O)c1cccc(NC(C)=O)c1 [Compound 107]
≤ 1000 | > 100 | CCOC(=O)c1cc(-c2ccccc2)sc1NC(=O)COC(=O)c1cccc(NS(C)(=O)=O)c1 [Compound 121]
≤ 1000 | > 100 | CS(=O)(=O)Nc1cccc(C(=O)OCC(=O)Nc2sc(-c3ccccc3)cc2C#N)c1 [Compound 127]
≤ 1000 | > 100 | CCOC(=O)c1cc(-c2ccccc2)sc1NC(=O)COC(=O)c1cccc(N(C)S(C)(=O)=O)c1 [Compound 130]
≤ 1000 | > 100 | CCOC(=O)c1cc(-c2ccccc2)sc1NC(=O)COC(=O)c1cccc(NS(=O)(=O)C2CCCCC2)c1 [Compound 132]
> 25000 | > 100 | CCOC(=O)c1cc(-c2ccccc2)sc1NC(=O)COC(=O)c1ccc(F)c(NS(C)(=O)=O)c1 [Compound 137]
≤ 1000 | > 100 | CCOC(=O)c1nc(-c2ccccc2)sc1NC(=O)COC(=O)c1cccc(NS(C)(=O)=O)c1 [Compound 144]
≤ 1000 | > 100 | CCOC(=O)c1cc(-c2ccccc2)sc1NC(=O)COc1cccc(NS(C)(=O)=O)c1 [Compound 147]
> 25000 | > 100 | CCOC(=O)c1cc(-c2ccccc2)sc1NC(=O)COC(=O)C1CCCC(NS(C)(=O)=O)C1 (centres unmarked) [Compound 150]
> 25000 | ≤ 25 | CCOC(=O)c1cc(-c2ccccc2)sc1NC(=O)COC(=O)c1cccc(NS(=O)(=O)C2CC2)c1 [Compound 161]
≤ 1000 | > 100 | CCOC(=O)c1cc(-c2ccccc2)sc1NC(=O)COC(=O)c1ccc2c(c1)OCCO2 [Compound 163]
> 25000 | > 100 | CCOC(=O)c1cc(-c2ccccc2)ccc1NC(=O)COC(=O)c1cccc(NS(C)(=O)=O)c1 [Compound 171]
≤ 1000 | > 100 | CCOC(=O)c1cc(-c2ccccc2)sc1NC(=O)COC(=O)C1CN(S(C)(=O)=O)CCO1 (centres unmarked) [Compound 172]
≤ 1000 | > 100 | CCOC(=O)c1cc(-c2ccccc2)sc1NC(=O)CN(C)Cc1cccc(NS(C)(=O)=O)c1 [Compound 180]
≤ 1000 | > 100 | CS(=O)(=O)Nc1cccc(C(=O)OCC(=O)N2CCN(c3ccccc3)C2=O)c1 [Compound 220]
≤ 1000 | > 100 | CS(=O)(=O)Nc1cccc(C(=O)OCc2nc(=O)c3cc(-c4ccccc4)sc3[nH]2)c1 [Compound 241]
≤ 1000 | > 100 | CCOC(=O)c1cc(-c2ccccc2)sc1NC(=O)c1ccc(-c2cccc(NS(C)(=O)=O)c2)nc1 [Compound 253]
≤ 1000 | > 100 | CS(=O)(=O)Nc1cccc(C(=O)OCC(=O)Nc2nc3ccccc3o2)c1 [Compound 270]
≤ 1000 | > 100 | CCOC(=O)c1cc(-c2ccccc2)sc1NC(=O)Cn1cnc(-c2cccc(NS(C)(=O)=O)c2)n1 [Compound 274]
≤ 1000 | > 100 | CCOC(=O)c1cc(-c2ccccc2)sc1C(=O)CNC(=O)c1cccc(NS(C)(=O)=O)c1 [Compound 292]
> 25000 | > 100 | CCOC(=O)c1cc(-c2ccccc2)sc1-c1cccc(NC(=O)c2cccc(NS(C)(=O)=O)c2)c1 [Compound 293]
≤ 1000 | > 100 | CCOC(=O)c1cc(-c2ccccc2)sc1C1=CCN(C(=O)c2cccc(NS(C)(=O)=O)c2)CC1 [Compound 294]
≤ 1000 | ≤ 25 | CCOC(=O)c1cc(-c2ccccc2)sc1NC(=O)CNC(=O)Cc1cccc(NS(C)(=O)=O)c1 [Compound 310]
≤ 1000 | > 100 | CCOC(=O)c1cc(-c2ccccc2)sc1NC(=O)CCS(=O)(=O)c1cccc(NS(C)(=O)=O)c1 [Compound 321]
